Entries after “also recorded” stand apart in the source; their conditions may differ. Read-outs that look alike come from different tables or passages of the source.
Key:
[1] = rats; cited from earlier work
[2] = cats; cited from earlier work
[3] = test system: Ca^2+ channel; conditions: frog heart single cells; cited from earlier work
[4] = solubility in methanol; assay type: physicochemical
Description: The process of the present invention overcomes disadvantages of the prior art since: • 1. Aerial parts such as leaves of Boerhavia diffusa collected from specific locations identified herein are used (containing the maximum amount of the compound and as established by analyzing the samples of the plant collected during three years). • 2. The process prescribes hot continuous extraction (Soxhlet extraction) ensuring complete extraction of compound of formula 1. […] The compound is purified by direct crystallization from the residue obtained after triturition described in 3, making it the simplest, quickest, highly economically viable, scale up compatible for commercial utilization and novel method for the isolation of compound of formula 1 with an yield upto 0.4% which is more than 300 times the yield reported by Li et al.

[5] = test system: bone resorption induced by parathyroid hormone (PTH); conditions: cited from earlier work; for activity compared with ipriflavone: under identical conditions, anti-osteoporosis activity
[6] = monkeys; cited from earlier work

Molecule: O=c1[nH]cnc2c1ncn2C1O[C@@H](CO)[C@H](O)[C@H]1O (stereo partly drawn) [hypoxanthine 9-L-arabinoside]
- cardiovascular effects [1]: depressor and negative chronotropic effects
- cardiovascular effects [2]: depressor and negative chronotropic effects

Molecule: COc1cc([C@H]2OC[C@H]3[C@@H]2CO[C@@H]3c2cc(OC)c(O[C@@H]3O[C@H](CO)[C@@H](O)[C@H](O)[C@H]3O)c(OC)c2)cc(OC)c1O[C@@H]1O[C@H](CO)[C@@H](O)[C@H](O)[C@H]1O [Liriodendrin, liriodendrin]
- Ca2+ channel block [3]: blocked

Molecule: COc1cc2oc(-c3ccc(O)cc3)c(OC3OC(CO)C(O)C(O)C3O)c(=O)c2c(O)c1OC [eupalitin 3-O-β-D-galactopyranoside, 5,4′-dihydroxy 6,7-dimethoxy-flavonol-3-O-β-D-galactoside]
- solubility in methanol [4]: not highly soluble
- inhibition of bone resorption induced by parathyroid hormone (PTH) ([5]; tissue culture): significant (p<0.001) inhibition
- activity compared with ipriflavone [5]: greater anti-osteoporosis activity than ipriflavone; also recorded: more than that exhibited by lpriflavone
- activity compared with ipriflavone ([5]; listed as 3-O-β-D-galactopyranoside): greater anti-osteoporosis activity than ipriflavone

Molecule: Punarnavoside
- antifibrinolytic activity [6]: had antifibrinolytic activity
